Experimental data published in patent US20260242395A1, “AMINOHETEROARYL KINASE INHIBITORS” (ALLORION THERAPEUTICS INC, priority 2022, published 2026).

How the values were obtained:
CDK6/CyclinD3 = target: T1, CDK6/CyclinD3 (Homo sapiens, UniProt Q00534); assay: CDK6/CyclinD3 kinase inhibitory activity (Caliper mobility shift); type: biochemical; conditions: enzyme 15 nM, ATP 800 μM, 28° C. 30 min; read-out: CDK6/Cyclin D3 IC50
T1 construct: purchased Carna 04-107
Protocol: CDK6/CyclinD3 kinase inhibitory activity (IC50): 5 μl of various dilutions of test compound in 1× kinase buffer (50 mM HEPES pH 7.5, 10 mM MgCl2, 2 mM DTT and 0.01% Brij-35) was mixed with 10 μL of CDK6/CyclinD3 (Carna, 04-107 #, final concentration 15 nM in 1× Kinase buffer) in 384 plates and incubated at room temperature for 10 min. To initiate each reaction, 10 μL of peptide solution containing fluorescently-labeled -peptide 8(5-FAM-IPTSPITTTYFFFKKK-COOH, GL, 112396 #, final concentration 3000 nM) and ATP (final concentration 800 μM for CDK6/CyclinD3 in 1× Kinase buffer was added to each of the wells containing test compound and CDK6/CyclinD3. The reaction is then allowed to proceed at 28° C. for 30 min and terminated by the addition of 25 μL stop buffer (100 mM HEPES pH 7.5, 50 mM EDTA, 0.2% Coating Reagent #3 (Perkin Elmer, 760050 #) and 0.015% Brij-35).
(§1) Following the kinase reaction, Caliper EZ reader II (Downstream voltages: −500V, Upstream voltages: −2250V, Base pressure −0.5 PSI, Screen pressure −1.2 PSI) was used to separate the phosphorylated (product) and the unphosphorylated (substrate) fluorescently-labeled peptide 8 based on their different mobility. Both substrate and product were measured and the ratio of these values were used to generate % conversion by Caliper EZ reader II. These conversion values were then transformed into % inhibition of kinase activity using the formula: % Inhibition=[(MA−X)/(MA−MI)]×100% where MA=conversion value of DMSO only controls, MI=conversion value of no enzyme controls and X=conversion value at any given compound dose. IC50 values were then calculated by plotting dose-response curves and then using the XLfit application in Excel software.

CDK4/CyclinD1 = target: T2, CDK4/CyclinD1 (Homo sapiens, UniProt P11802); assay: CDK4/CyclinD1 kinase inhibitory activity (Caliper mobility shift); type: biochemical; conditions: enzyme 20 nM, ATP 672 uM, 28° C. 30 min; read-out: CDK4/Cyclin D1 IC50
T2 construct: purchased ProQinase 0142-0143-1
Protocol: CDK4/CyclinD1 kinase inhibitory activity (IC50): 5 μl of various dilutions of test compound in 1× kinase buffer (20 mM HEPES, pH 7.5, 10 mM MgCl2, 2 mM DTT and 0.01% Triton X-100) was mixed with 10 μL of either CDK4/Cyclin D1 (ProQinase, 0142-0143-1 #, final concentration 20 nM in 1× Kinase buffer) or in 384 plates and incubated at room temperature for 10 min. To initiate each reaction, 10 μL of peptide solution containing fluorescently-labeled-peptide 8(5-FAM-IPTSPITTTYFFFKKK-COOH, GL, 112396 #, final concentration 3000 nM) and ATP (final concentration 672 uM for CDK4/CyclinD1) in 1×Kinase buffer was added to each of the wells containing test compound and CDK4/CyclinD1 mixture. The reaction is then allowed to proceed at 28° C. for 30 min and terminated by the addition of 25 μL stop buffer (100 mM HEPES pH 7.5, 50 mM EDTA, 0.2% Coating Reagent #3 (Perkin Elmer, 760050 #) and 0.015% Brij-35).
as §1

T1 sequence (Q00534 whole entry): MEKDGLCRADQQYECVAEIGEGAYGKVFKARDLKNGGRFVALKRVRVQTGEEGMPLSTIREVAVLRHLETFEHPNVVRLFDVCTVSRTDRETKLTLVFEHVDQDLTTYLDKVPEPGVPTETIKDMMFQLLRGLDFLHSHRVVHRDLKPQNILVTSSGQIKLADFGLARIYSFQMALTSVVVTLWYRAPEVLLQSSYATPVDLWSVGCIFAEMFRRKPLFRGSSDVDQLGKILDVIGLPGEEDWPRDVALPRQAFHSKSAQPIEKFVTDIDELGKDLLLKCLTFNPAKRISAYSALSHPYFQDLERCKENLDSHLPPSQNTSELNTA
T1 sequence (P30281 whole entry partner): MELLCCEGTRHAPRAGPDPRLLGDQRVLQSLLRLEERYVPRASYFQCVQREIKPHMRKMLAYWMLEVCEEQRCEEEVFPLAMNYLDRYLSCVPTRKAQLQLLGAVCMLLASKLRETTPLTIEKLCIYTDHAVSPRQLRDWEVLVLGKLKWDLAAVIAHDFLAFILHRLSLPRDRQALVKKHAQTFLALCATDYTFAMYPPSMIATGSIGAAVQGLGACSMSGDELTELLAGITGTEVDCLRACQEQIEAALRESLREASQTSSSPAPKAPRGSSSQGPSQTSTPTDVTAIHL
T2 sequence (P11802 whole entry): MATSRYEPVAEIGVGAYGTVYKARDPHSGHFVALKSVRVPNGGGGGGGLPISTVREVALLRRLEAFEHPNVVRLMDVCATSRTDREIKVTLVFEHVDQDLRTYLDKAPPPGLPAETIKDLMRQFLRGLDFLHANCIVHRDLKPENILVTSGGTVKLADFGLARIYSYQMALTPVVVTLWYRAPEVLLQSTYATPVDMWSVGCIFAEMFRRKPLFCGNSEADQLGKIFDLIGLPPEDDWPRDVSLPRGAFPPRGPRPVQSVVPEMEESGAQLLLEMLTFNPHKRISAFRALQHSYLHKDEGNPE
T2 sequence (P24385 whole entry partner): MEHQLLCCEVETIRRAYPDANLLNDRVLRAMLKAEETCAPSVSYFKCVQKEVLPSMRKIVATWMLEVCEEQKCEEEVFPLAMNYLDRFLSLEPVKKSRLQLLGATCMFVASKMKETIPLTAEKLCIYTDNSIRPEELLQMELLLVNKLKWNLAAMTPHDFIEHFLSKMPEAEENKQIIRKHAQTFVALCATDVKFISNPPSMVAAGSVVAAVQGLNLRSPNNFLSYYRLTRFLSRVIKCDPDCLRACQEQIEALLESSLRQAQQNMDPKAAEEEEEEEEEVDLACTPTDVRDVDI

Row | Compound | IC50 (CDK6/CyclinD3) [nM] | IC50 (CDK4/CyclinD1) [nM]
1 | [2H]c1nc(N[C@@H]2CCOC[C@H]2O)nc(-c2cc(F)c3nc(C)c4c(c3c2)CNC(C)(C)C4)c1F [Example 105] | 100 to 1000 | < 10
2 | CC1(C)NCCc2cnc3c(F)cc(-c4nc(N[C@@H]5CCOC[C@H]5O)ncc4Cl)cc3c21 [Example 109] | 100 to 1000 | < 10
3 | [2H]C1([2H])c2cnc3c(F)cc(-c4nc(N[C@@H]5CCOC[C@H]5O)ncc4F)cc3c2CNC1(C)C [Example 110] | 100 to 1000 | < 10
